Consider 37 compounds from patent US20210163412A1, “NOVEL SULFONEUREA COMPOUNDS” (Inflazome Limited, priority 2018, published 2021).

As a reminder, the IC50 is the point on the concentration scale where inhibition reaches its midpoint.

Test [1] deals with T1, NLRP3 (Homo sapiens, UniProt Q96P20). In words: Human whole blood IL-1β release assay. The following applies: LPS 1 μg/ml, nigericin, IL-1β in supernatant (AlphaLisa), read-out: HWB IC50. The format is cell-based. On the set-up: Human whole blood in Li-heparin tubes was obtained from healthy donors; from tissue; host or cells: human whole blood from healthy donors. As to the method: For systemic delivery, the ability to inhibit NLRP3 when the compounds are present within the bloodstream is of great importance. For this reason, the NLRP3 inhibitory activity of a number of compounds in human whole blood was investigated in accordance with the following protocol.
Human whole blood in Li-heparin tubes was obtained from healthy donors from a volunteer donor panel. • 1. […] Incubate for 3 hrs at 37° C., 5% CO2 • 4. Add 1 μl nigericin (Sigma #N7143) ([…]) to all wells • 5. Incubate for 1 hr at 37° C., 5% CO2 • 6. At the end of the incubation period, spin plates at 300×g for 5 mins to pellet cells and remove 20 μl of supernatant and add to 96-well v-bottom plates for IL-1β analysis (note: these plates containing the supernatants can be stored at −80° C. to be analysed at a later date) • 7. IL-1β was measured according to the manufacturer protocol (Perkin Elmer-AlphaLisa IL-1 Kit AL220F-5000) • 8. IC50 data is fitted to a non-linear regression equation (log inhibitor vs response-variable slope 4-parameters)

Test [2] addresses T1, NLRP3. In words: THP-1 cells pyroptosis assay. The test is classed as cell-based. On the set-up: Seed THP-1 cells (25,000 cells/well) containing 1.0 μg/ml LPS; host or cells: THP-1 cells. To be noted: LPS 1 μg/ml, nigericin 5 μM, resazurin readout. As to the method: The cells were routinely passaged and grown to confluency (˜10^6 cells/ml). On the day of the experiment, THP-1 cells were harvested and resuspended into RPMI medium (without FBS). The cells were then counted and viability (>90%) checked by Trypan blue (Sigma #T8154). […] To this diluted cell solution was added LPS (Sigma #L4524) to give a 1 μg/ml Final Assay Concentration (FAC). 40 μl of the final preparation was aliquoted into each well of a 96-well plate. The plate thus prepared was used for compound screening.
The following method step-by-step assay was followed for compound screening. • 1. […] Incubate for 3 hrs at 37° C., 5% CO2 • 4. Add 5 μl nigericin (Sigma #N7143) (FAC 5 μM) to all wells • 5. Incubate for 1 hr at 37° C., 5% CO2 • 6. At the end of the incubation period, spin plates at 300×g for 3 mins and remove supernatant • 7. Then add 50 μl of resazurin (Sigma #R7017) (FAC 100 μM resazurin in RPMI medium without FBS) and incubate plates for a further 1-2 hrs at 37° C. and 5% CO2 • 8. […] IC50 data is fitted to a non-linear regression equation (log inhibitor vs response-variable slope 4-parameters)
In general terms: Alamar Blue is a resazurin reagent that responds to reducing activity.

T1 sequence (Q96P20 whole entry): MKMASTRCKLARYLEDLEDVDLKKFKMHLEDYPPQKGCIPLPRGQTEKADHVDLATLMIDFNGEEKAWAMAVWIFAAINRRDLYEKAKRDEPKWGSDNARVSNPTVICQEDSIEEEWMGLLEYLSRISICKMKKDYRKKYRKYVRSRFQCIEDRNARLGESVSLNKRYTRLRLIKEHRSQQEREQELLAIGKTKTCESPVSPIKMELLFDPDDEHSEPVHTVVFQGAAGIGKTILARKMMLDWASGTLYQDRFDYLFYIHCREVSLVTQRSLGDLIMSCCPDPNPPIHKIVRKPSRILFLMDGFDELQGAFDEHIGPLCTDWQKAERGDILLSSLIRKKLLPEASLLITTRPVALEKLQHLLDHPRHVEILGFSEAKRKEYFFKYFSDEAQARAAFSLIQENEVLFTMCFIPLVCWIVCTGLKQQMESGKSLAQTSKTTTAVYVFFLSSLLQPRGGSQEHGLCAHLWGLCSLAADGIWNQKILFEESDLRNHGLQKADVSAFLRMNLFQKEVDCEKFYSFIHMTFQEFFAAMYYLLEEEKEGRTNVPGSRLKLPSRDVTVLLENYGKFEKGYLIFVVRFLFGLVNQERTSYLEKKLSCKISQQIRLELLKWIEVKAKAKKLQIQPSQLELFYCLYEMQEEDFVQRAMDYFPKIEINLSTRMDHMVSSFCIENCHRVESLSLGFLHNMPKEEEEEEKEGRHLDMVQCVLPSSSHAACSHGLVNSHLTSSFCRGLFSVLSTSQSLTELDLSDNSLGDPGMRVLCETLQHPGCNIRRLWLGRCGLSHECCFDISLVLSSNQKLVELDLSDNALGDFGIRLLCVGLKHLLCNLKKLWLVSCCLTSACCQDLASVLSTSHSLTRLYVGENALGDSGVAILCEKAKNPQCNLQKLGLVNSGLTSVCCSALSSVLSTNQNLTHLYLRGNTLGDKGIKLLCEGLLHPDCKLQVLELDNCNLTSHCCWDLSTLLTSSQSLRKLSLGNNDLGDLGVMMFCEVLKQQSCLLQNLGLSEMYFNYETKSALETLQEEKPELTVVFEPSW

Take `Cc1cc2c(c(NC(=O)NS(=N)(=O)c3ccccc3)c1-c1ccnc(OC3CCN(C)CC3)c1)CCC2` (centres unmarked) [Example 79, N-((6-Methyl-5-(2-((1-methylpiperidin-4-yl)oxy)pyridin-4-yl)-2,3-dihydro-1H-inden-4-yl)carbamoyl)benzenesulfonimidamide]: the concentration for half-maximal inhibition (IC50) in test [1] was 1000 to 2000 nM; in test [2], no more than 250 nM.
The matching figures for `CS(=O)(=O)NC(=O)Nc1c(-c2ccnc(OC3CCN(Cc4ccccc4)CC3)c2)ccc2c1CCC2` [Example 19]: 1000 to 2000 nM and no more than 250 nM.
With `CN(C)C1CCC(Oc2cc(-c3ccc4c(c3NC(=O)NS(C)(=O)=O)CCC4)ccn2)CC1` (centres unmarked) [Example 29], the IC50 in test [1] and in test [2] was no more than 250 nM throughout.
In test [2], `COc1cc(-c2cc(F)cc(C(C)C)c2NC(=O)NS(=O)(=O)c2ccn(C(C)C)n2)cc(C)n1` [comp ex 2, reference compound] displayed an IC50 of 2000 to 5000 nM.
As to `O=C(Nc1c(-c2ccnc(OC3CC3)c2)ccc2c1CCO2)NS(=O)(=O)c1ccn(C2CCC2)n1` [Example 67], the IC50 in test [1] was 500 to 1000 nM; in test [2], no more than 250 nM.
Take `CC(C)n1ccc(S(=O)(=O)NC(=O)Nc2c(-c3ccnc(OC4CCN(C)C4)c3)ccc3c2CCC3)n1` (centres unmarked) [Example 76]: in test [2], the half-inhibitory concentration (IC50) fell in the range of 500 to 1000 nM.
On to `CN1CCC(Oc2cc(-c3cc(F)cc(C4CCCCC4)c3NC(=O)NS(C)(=O)=O)ccn2)CC1` [Example 39], for which the IC50 in test [1] is 1000 to 2000 nM; in test [2], no more than 250 nM.
On the same counts, the results for `CN1CCC(Oc2cc(-c3ccc4c(c3NC(=O)N=S(N)(=O)c3ccccc3)CCC4)ccn2)CC1` (centres unmarked) [Example 78, N′-((5-(2-((1-Methylpiperidin-4-yl)oxy)pyridin-4-yl)-2,3-dihydro-1H-inden-4-yl)carbamoyl)benzenesulfonimidamide] are 2000 to 5000 nM and no more than 250 nM.
On the same counts, the results for `CN1CCC(COc2cc(-c3ccc4c(c3NC(=O)NS(C)(=O)=O)CCC4)ccn2)CC1` [Example 27] are 500 to 1000 nM and 1000 to 2000 nM.
Turning to `CC(C)n1ccc(S(=O)(=O)NC(=O)Nc2c(-c3ccnc(C4CC4)c3)ccc3c2CCC3)n1` [Example 69], the concentration for half-maximal inhibition (IC50) in test [1] is 500 to 1000 nM; in test [2] it was no more than 250 nM.
The matching figures for `Cc1cc2c(c(NC(=O)NS(C)(=O)=O)c1-c1ccnc(OCC3CCCN(C)C3)c1)CCC2` (centres unmarked) [Example 47]: no more than 250 nM and no more than 250 nM.
The matching figures for `CC(C)n1ccc(S(=O)(=O)NC(=O)Nc2c(-c3ccnc(OC4CCOC4)c3)ccc3c2CCC3)n1` (centres unmarked) [Example 70]: 500 to 1000 nM and no more than 250 nM.
On the same counts, the results for `O=C(Nc1c(-c2ccnc(OC3CC3)c2)ccc2c1CCC2)NS(=O)(=O)c1ccn(C2CC2)n1` [Example 72] are 1000 to 2000 nM and no more than 250 nM.
In test [2], `CC(C)c1cc(F)cc(-c2ccnc(N(C)C)c2)c1NC(=O)NS(=O)(=O)c1ccn(C(C)C)n1` [comp ex 3, reference compound] showed an IC50 of 2000 to 5000 nM.
Consider `CN1CCC(Oc2cc(-c3cc(F)cc(-c4ccccc4)c3NC(=O)NS(C)(=O)=O)ccn2)CC1` [Example 42], for which the IC50 in test [1] and in test [2] was 1000 to 2000 nM throughout.
On to `CC(C)n1ccc(S(=O)(=O)NC(=O)Nc2c(-c3ccnc(OC4CCCOC4)c3)ccc3c2CCC3)n1` (centres unmarked) [Example 74], for which the figures for the concentration for half-maximal inhibition (IC50) in test [1] and in test [2] were 1000 to 2000 nM and no more than 250 nM, respectively.
The matching figures for `CC(C)n1ccc(S(=O)(=O)NC(=O)Nc2c(-c3ccnc(OC4CCN(C)CC4)c3)ccc3c2CCC3)n1` [Example 68, i-Isopropyl-N-((5-(2-((1-methylpiperidin-4-yl)oxy)pyridin-4-yl)-2,3-dihydro-1H-inden-4-yl)carbamoyl)-1H-pyrazole-3-sulfonamide]: 250 to 500 nM and no more than 250 nM.
Regarding `CN(C)CC(C)(C)n1ccc(S(=O)(=O)NC(=O)Nc2c(-c3ccnc(OC4CC4)c3)ccc3c2CCC3)n1` [Example 66], the values for the 50% inhibitory concentration (IC50) in test [1] and in test [2] were 250 to 500 nM and no more than 250 nM, respectively.
In the case of `CO[C@H]1CC[C@@H](Oc2cc(-c3ccc4c(c3NC(=O)NS(C)(=O)=O)CCC4)ccn2)CC1` [Example 1, N-((5-(2-(((1s,4s)-4-Methoxycyclohexyl)oxy)pyridin-4-yl)-2,3-dihydro-1H-inden-4-yl)carbamoyl)methanesulfonamide], the IC50 was 1000 to 2000 nM in test [1] and no more than 250 nM in test [2].
With `CC(C)n1ccc(S(=O)(=O)NC(=O)Nc2c(-c3ccnc(Oc4ccccc4)c3)ccc3c2CCC3)n1` [Example 77], the concentration for half-maximal inhibition (IC50) is 5000 to 10000 nM in test [1] and no more than 250 nM in test [2].
On the same counts, the results for `Cc1cc2c(c(NC(=O)NS(C)(=O)=O)c1-c1ccnc(OC3CCOC3)c1)CCC2` (centres unmarked) [Example 53] are 250 to 500 nM and no more than 250 nM.
On the same counts, the results for `CC(C)(CN1CCC1)n1ccc(S(=O)(=O)NC(=O)Nc2c(-c3ccnc(OC4CC4)c3)ccc3c2CCC3)n1` [Example 65] are 250 to 500 nM and no more than 250 nM.
The matching figures for `CO[C@H]1CC[C@H](Oc2cc(-c3c(C)cc4c(c3NC(=O)NS(C)(=O)=O)CCC4)ccn2)CC1` [Example 54]: 500 to 1000 nM and no more than 250 nM.
With `CN(C)CC(C)(C)n1ccc(S(=O)(=O)NC(=O)Nc2c(-c3ccnc(OC4CC4)c3)ccc3c2CCO3)n1` [Example 64, N-((5-(2-Cyclopropoxypyridin-4-yl)-2,3-dihydrobenzofuran-4-yl)carbamoyl)-1-(1-(dimethylamino)-2-methylpropan-2-yl)-1H-pyrazole-3-sulfonamide], the half-maximal inhibitory concentration (IC50) is 250 to 500 nM in test [1] and no more than 250 nM in test [2].
The matching figures for `CN1CCC(Oc2cc(-c3ccc4c(c3NC(=O)NS(C)(=O)=O)CCC4)ccn2)CC1` [Example 35]: no more than 250 nM and no more than 250 nM.
On the same counts, the results for `CS(=O)(=O)NC(=O)Nc1c(-c2ccnc(OC3CCN(C4CC4)CC3)c2)ccc2c1CCC2` [Example 22] are 2000 to 5000 nM and no more than 250 nM.
The matching figures for `O=C(Nc1c(-c2ccnc(OC3CC3)c2)ccc2c1CCO2)NS(=O)(=O)c1ccn(C2CC2)n1` [Example 71]: 500 to 1000 nM and no more than 250 nM.
As for `C=CCN1CCC(Oc2cc(-c3ccc4c(c3NC(=O)NS(=O)(=O)CC=C)CCC4)ccn2)CC1` [Example 59, N-((5-(2-((1-Allylpiperidin-4-yl)oxy)pyridin-4-yl)-2,3-dihydro-1H-inden-4-yl)carbamoyl)prop-2-ene-1-sulfonamide], the IC50 in test [1] was 1000 to 2000 nM; in test [2], no more than 250 nM.
As to `CS(=O)(=O)NC(=O)Nc1c(-c2ccnc(O[C@H]3CC[C@@](C)(O)CC3)c2)ccc2c1CCC2` [Example 4], the half-maximal inhibitory concentration (IC50) is 250 to 500 nM in test [1] and no more than 250 nM in test [2].
On the same counts, the results for `CS(=O)(=O)NC(=O)Nc1c(-c2ccnc(OC3CCOCC3)c2)ccc2c1CCC2` [Example 33] are 1000 to 2000 nM and 250 to 500 nM.
The matching figures for `Cc1c(-c2ccc3c(c2NC(=O)NS(C)(=O)=O)CCC3)ccnc1OC1CCN(C)CC1` [Example 15]: 250 to 500 nM and 250 to 500 nM.
As to `CO[C@H]1CC[C@@H](Oc2cc(-c3c(C)cc4c(c3NC(=O)NS(C)(=O)=O)CCC4)ccn2)CC1` [Example 55], the figures for the IC50 in test [1] and in test [2] were 500 to 1000 nM and no more than 250 nM, respectively.
On the same counts, the results for `Cc1cc2c(c(NC(=O)NS(C)(=N)=O)c1-c1ccnc(OC3CCN(C)CC3)c1)CCC2` (centres unmarked) [Example 80, N-((6-Methyl-5-(2-((1-methylpiperidin-4-yl)oxy)pyridin-4-yl)-2,3-dihydro-1H-inden-4-yl)carbamoyl)methanesulfonimidamide] are 500 to 1000 nM and no more than 250 nM.
For `CC(C)n1ccc(S(=O)(=O)NC(=O)Nc2c(-c3ccnc(OC4CCOCC4)c3)ccc3c2CCC3)n1` [Example 73], the results for the half-inhibitory concentration (IC50) in test [1] and in test [2] were 500 to 1000 nM and no more than 250 nM, respectively.
On the same counts, the results for `CC(C)n1ccc(S(=O)(=O)NC(=O)Nc2c(-c3ccnc(OC4CCC4)c3)ccc3c2CCC3)n1` [Example 75] are 1000 to 2000 nM and no more than 250 nM.
The matching figures for `Cc1cc2c(c(NC(=O)NS(C)(=O)=O)c1-c1ccnc(O[C@H]3CC[C@H](N(C)C)CC3)c1)CCC2` [Example 46]: no more than 250 nM and no more than 250 nM.
On the same counts, the results for `CC1CC(Oc2cc(-c3ccc4c(c3NC(=O)NS(C)(=O)=O)CCC4)ccn2)CCO1` (centres unmarked) [Example 8] are 1000 to 2000 nM and 250 to 500 nM.
